Measured values reported in patent US8188148B2, “Substituted 1,3-diphenylpropane derivatives, preparations and uses thereof” (Genfit, priority 2006, dated 2012).

What was measured:
[1] = test system: PPARs target genes (PDK4, ApoCIII); test: Hepatic gene expression by quantitative RT-PCR in E2/E2 mouse; format: in vivo; conditions: E2/E2 mouse, 5, 10, and 50 mpk, 8 days, normalized to 36B4
Protocol: The effectiveness of the compounds according to the invention is also evaluated by measuring, in the hepatic tissue, the expression of genes involved in lipid and/or glucid metabolism and in energy dissipation. Each level of gene expression is normalized regarding the expression level of the reference gene 36B4. The induction factor, i.e. the ratio between the relative signal (induced by the compound according to the invention) and the average of the relative values obtained with the control group, is then calculated. The higher the induction factor is, the more the compound promotes hepatic gene expression. […]
The agonist properties of PPARα previously measured in vitro should, in the liver, lead to an over-expression of the target genes directly under the control of the PPARα. […]
Gene expression analysis by quantitative RT-PCR Total RNA is extracted from liver fragments by using a NucleoSpin® 96 RNA kit (Macherey Nagel, Hoerdt, France) according to the manufacturer's instructions.
1 μg of total RNA (quantified by using the Ribogreen RNA quantification kit (Molecular Probes)) is then reverse-transcribed into complementary DNA by means of a 1 hour reaction at 37° C. in a total volume of 20 μl containing a 1× buffer (Sigma), 1.5 mM of DTT, 0.18 mM of dNTPs (Promega), 200 ng of pdN6 (Amersham), 30 U of RNase inhibitor (Sigma), and 1 μl of MMLV-RT (Sigma). […]

[2] = test system: PPARs target genes (PDK4, UCP2); test: Hepatic and skeletal muscle gene expression by quantitative RT-PCR in db/db mouse; format: in vivo; conditions: 50 mpk, 28 days
Protocol: The effectiveness of the compounds according to the invention is also evaluated by measuring, in the hepatic and muscular (skeletal) tissues, the expression of genes involved in lipid and/or glucid metabolism and in energy dissipation. Each level of gene expression is normalized regarding the expression level of the reference gene 36B4 in the hepatic tissue, or regarding the expression level of the reference gene 18S in the gastrocnemius skeletal muscle. The induction factor, i.e. the ratio between the relative signal (induced by the compound according to the invention) and the average of the relative values obtained with the control group, is then calculated. The higher the induction factor is, the more the greater the compound promotes gene expression. The final result is represented as the average of the induction values obtained with each experimental group. • FIG. 4-8: Expression of PDK4 in the hepatic tissue of the db/db mouse, after 28 days of treatment with compound 1 and compound 3, administered at 50 mpk • FIG. 4-9: Expression of UCP2 (uncoupling protein 2) in the skeletal muscle tissue of the db/db mouse, after 28 days of treatment with compound 1 and compound 3, administered at 50 mpk
Total RNA was extracted from liver fragments by using a NucleoSpin® 96 RNA kit (Macherey Nagel, Hoerdt, France) according to the manufacturer's instructions.
Total RNA was extracted from gastrocnemius skeletal muscle fragments by using a RNeasy® Fibrous Tissue kit (Qiagen) according to the manufacturer's instructions.
1 μg of total RNA (quantified by spectrophotometry) was then reverse-transcripted into complementary DNA by means of a 1 hour reaction at 37° C. in a total volume of 20 μl containing a 1× buffer (Sigma), 1.5 mM of DTT, 0.18 mM of dNTPs (Promega), 200 ng of pdN6 (Amersham), 30 U of RNase inhibitor (Sigma), and 1 μl of MMLV-RT (Sigma).
The PCR quantitative experiments were carried out using the MyiQ Single-Color Real-Time PCR Detection System (Biorad, Marnes-la-Coquette, France) and were performed using the iQ SYBR Green Supermix kit according to the provider's recommendations, in 96-well plates in 5 μl of a diluted reverse-transcription solution at a hybridization temperature of 55° C. The specific primer pairs of the genes being studied were used:
The amount of fluorescence emitted is directly proportional to the amount of complementary DNA present at the beginning of the reaction and amplified during the PCR. For each target studied, a range of solutions is performed with successive dilutions of mixtures of a few microliters of different reverse-transcription solutions. The relative levels of expression of each target are thus determined by using efficiency curves obtained with the points relative to the range of PCR solutions. […]

SMILES: Cc1cc(CCC(=O)c2ccc(OC(F)(F)F)cc2)cc(C)c1OC(C)(C)C(=O)O [Compound 1, 2-[2,6-dimethyl-4-[3-[4-(trifluoromethyloxy)phenyl]-3-oxo-propyl]phenoxy]-2-methyl-propanoic acid]
- hepatic expression of the gene coding for ApoCIII [1]: reduction
- hepatic expression of the gene coding for PDK4 [1]: significant increase
- expression of the gene coding for UCP2 in the skeletal muscle ([2]; gastrocnemius skeletal muscle): reduction
- hepatic expression of the gene coding for PDK4 ([2]; hepatic tissue): significant increase
